{
  "source": "patent US20090306135A1",
  "about": "(priority 2008, published 2009)",
  "key": {"[1]": {"source_text": "X-Ray tube with Cu target anode Divergence slits 1 0, Receiving slit 0.15 mm, Scatter slit 1 0 Power: 40 KV, 100 mA; Scanning speed: 2 degree/minute step: 0.02 degree; Wave length: 1.5406 A; Spray Dryer: PST01"}, "[2]": {"assay": "Storage stability at 25 ± 2° C. and 60 ± 5% RH", "assay_type": "physicochemical"}, "[3]": {"conditions": "40 ± 2° C. and 75 ± 5% RH (Using BHA), 1 Month"}, "[4]": {"conditions": "40 ± 2° C. and 75 ± 5% RH (Using BHA), 2 Month"}, "[5]": {"conditions": "40 ± 2° C. and 75 ± 5% RH (Using BHA), Initial"}, "[6]": {"conditions": "40 ± 2° C. and 75 ± 5% RH, 1 Month"}, "[7]": {"conditions": "40 ± 2° C. and 75 ± 5% RH, 2 Month"}, "[8]": {"conditions": "40 ± 2° C. and 75 ± 5% RH, 3 Month"}, "[9]": {"conditions": "40 ± 2° C. and 75 ± 5% RH, Initial"}},
  "note": "Read-outs that look alike come from different tables or passages of the source.",
  "data": [
    {"smiles": "CC(C)(C(=O)O)c1ccc(C(O)CCCN2CCC(C(O)(c3ccccc3)c3ccccc3)CC2)cc1.Cl", "note": "(racemic) [Example 2, (±)-4-[1 hydroxy-4-[4-(hydroxydiphenylmethyl)-1-piperidinyl]-butyl]-α,α-dimethyl benzeneacetic acid hydrochloride]", "values": [
      {"measurement": "Assay by HPLC", "setting": "[1]; [3]", "value": 99.6, "unit": "% w/w on dried basis"},
      {"measurement": "Description", "setting": "[1]; [3]", "value": "White powder"},
      {"measurement": "Possible impurities Comp-A", "setting": "[1]; [3]", "value": 0.069},
      {"measurement": "Possible impurities ME-mF (Methyl ester of m-fexofenadine)", "setting": "[1]; [3]", "value": 0.023},
      {"measurement": "Possible impurities TRS-1", "setting": "[1]; [3]", "value": 0.008},
      {"measurement": "Related Subs", "setting": "[1]; [3]", "value": 0.227, "unit": "% w/w"},
      {"measurement": "XRD", "setting": "[1]; [3]", "value": "Complies"},
      {"measurement": "Assay by HPLC", "setting": "[1]; [4]", "value": 99.3, "unit": "% w/w on dried basis"},
      {"measurement": "Description", "setting": "[1]; [4]", "value": "White powder"},
      {"measurement": "Possible impurities Comp-A", "setting": "[1]; [4]", "value": 0.067},
      {"measurement": "Possible impurities ME-mF (Methyl ester of m-fexofenadine)", "setting": "[1]; [4]", "value": 0.019},
      {"measurement": "Possible impurities TRS-1", "setting": "[1]; [4]", "value": 0.009},
      {"measurement": "Related Subs", "setting": "[1]; [4]", "value": 0.218, "unit": "% w/w"},
      {"measurement": "XRD", "setting": "[1]; [4]", "value": "Complies"},
      {"measurement": "Assay by HPLC", "setting": "[1]; [5]", "value": 99.3, "unit": "% w/w on dried basis"},
      {"measurement": "Description", "setting": "[1]; [5]", "value": "White powder"},
      {"measurement": "Possible impurities Comp-A", "setting": "[1]; [5]", "value": 0.071},
      {"measurement": "Possible impurities ME-mF (Methyl ester of m-fexofenadine)", "setting": "[1]; [5]", "value": 0.023},
      {"measurement": "Related Subs", "setting": "[1]; [5]", "value": 0.219, "unit": "% w/w"},
      {"measurement": "XRD", "setting": "[1]; [5]", "value": "Complies"}
    ]},
    {"smiles": "CC(C)(C(=O)O)c1ccc(C(O)CCCN2CCC(C(O)(c3ccccc3)c3ccccc3)CC2)cc1.Cl", "note": "(racemic) [amorphous fexofenadine hydrochloride, (±)-4-[1 hydroxy-4-[4-(hydroxydiphenylmethyl)-1-piperidinyl]-butyl]-α,α-dimethyl benzeneacetic acid hydrochloride]", "values": [
      {"measurement": "time for which the product is stable", "setting": "[1]; different storage conditions (Tables 1-3)", "value": "≥ 3", "unit": "months"}
    ]},
    {"smiles": "CC(C)(C(=O)O)c1ccc(C(O)CCCN2CCC(C(O)(c3ccccc3)c3ccccc3)CC2)cc1.Cl", "note": "(racemic) [Example 1, (±)-4-[1 hydroxy-4-[4-(hydroxydiphenylmethyl)-1-piperidinyl]-butyl]-α,α-dimethyl benzeneacetic acid hydrochloride]", "values": [
      {"measurement": "Assay by HPLC", "setting": "[1]; [6]", "value": 99.4, "unit": "% w/w on dried basis"},
      {"measurement": "Description", "setting": "[1]; [6]", "value": "White Powder"},
      {"measurement": "Possible impurities Comp-A", "setting": "[1]; [6]", "value": 0.050},
      {"measurement": "Related Subs", "setting": "[1]; [6]", "value": 0.201, "unit": "% w/w"},
      {"measurement": "XRD", "setting": "[1]; [6]", "value": "Complies"},
      {"measurement": "Assay by HPLC", "setting": "[1]; [7]", "value": 98.7, "unit": "% w/w on dried basis"},
      {"measurement": "Description", "setting": "[1]; [7]", "value": "White Powder"},
      {"measurement": "Possible impurities Comp-A", "setting": "[1]; [7]", "value": 0.047},
      {"measurement": "Possible impurities ME-pF (Methyl ester of p-fexofenadine)", "setting": "[1]; [7]", "value": 0.002},
      {"measurement": "Possible impurities TRS-1", "setting": "[1]; [7]", "value": 0.008},
      {"measurement": "Related Subs", "setting": "[1]; [7]", "value": 0.237, "unit": "% w/w"},
      {"measurement": "XRD", "setting": "[1]; [7]", "value": "Complies"},
      {"measurement": "Assay by HPLC", "setting": "[1]; [8]", "value": 99.3, "unit": "% w/w on dried basis"},
      {"measurement": "Description", "setting": "[1]; [8]", "value": "White Powder"},
      {"measurement": "Possible impurities Comp-A", "setting": "[1]; [8]", "value": 0.053},
      {"measurement": "Related Subs", "setting": "[1]; [8]", "value": 0.203, "unit": "% w/w"},
      {"measurement": "XRD", "setting": "[1]; [8]", "value": "Complies"},
      {"measurement": "Assay by HPLC", "setting": "[1]; [9]", "value": 99.0, "unit": "% w/w on dried basis"},
      {"measurement": "Description", "setting": "[1]; [9]", "value": "White Powder"},
      {"measurement": "Possible impurities Comp-A", "setting": "[1]; [9]", "value": 0.049},
      {"measurement": "Related Subs", "setting": "[1]; [9]", "value": 0.188, "unit": "% w/w"},
      {"measurement": "XRD", "setting": "[1]; [9]", "value": "Complies"},
      {"measurement": "Assay by HPLC", "setting": "[2]; 3 Month", "value": 99.4, "unit": "% w/w on dried basis"},
      {"measurement": "Description", "setting": "[2]; 3 Month", "value": "White Powder"},
      {"measurement": "Possible impurities Comp-A", "setting": "[2]; 3 Month", "value": 0.050},
      {"measurement": "Related Subs", "setting": "[2]; 3 Month", "value": 0.213, "unit": "% w/w"},
      {"measurement": "XRD", "setting": "[2]; 3 Month", "value": "Complies"},
      {"measurement": "Assay by HPLC", "setting": "[2]; 6 Month", "value": 98.8, "unit": "% w/w on dried basis"},
      {"measurement": "Description", "setting": "[2]; 6 Month", "value": "White Powder"},
      {"measurement": "Possible impurities Comp-A", "setting": "[2]; 6 Month", "value": 0.040},
      {"measurement": "Related Subs", "setting": "[2]; 6 Month", "value": 0.186, "unit": "% w/w"},
      {"measurement": "XRD", "setting": "[2]; 6 Month", "value": "Complies"},
      {"measurement": "Assay by HPLC", "setting": "[2]; 9 Month", "value": 100.2, "unit": "% w/w on dried basis"},
      {"measurement": "Description", "setting": "[2]; 9 Month", "value": "White Powder"},
      {"measurement": "Possible impurities Comp-A", "setting": "[2]; 9 Month", "value": 0.039},
      {"measurement": "Related Subs", "setting": "[2]; 9 Month", "value": 0.171, "unit": "% w/w"},
      {"measurement": "XRD", "setting": "[2]; 9 Month", "value": "Complies"},
      {"measurement": "Assay by HPLC", "setting": "[2]; Initial", "value": 99.0, "unit": "% w/w on dried basis"},
      {"measurement": "Description", "setting": "[2]; Initial", "value": "White Powder"},
      {"measurement": "Possible impurities Comp-A", "setting": "[2]; Initial", "value": 0.049},
      {"measurement": "Related Subs", "setting": "[2]; Initial", "value": 0.188, "unit": "% w/w"},
      {"measurement": "XRD", "setting": "[2]; Initial", "value": "Complies"}
    ]}
  ]
}
